Data: patent US9457033B2, “Steroid alkaloids and uses thereof as antimicrobial agents against electron transport-deficient microbes and as potentiators for antimicrobial agents against pathogenic bacteria” (priority 2011, dated 2016)

Key:
S. aureus ATCC 29213 [1] = assay: MIC, microdilution in CAMHB 24 h, with or without tomatidine/compound; format: cell-based, Staphylococcus aureus; settings: for MIC −TO: absence of tomatidine
S. aureus ATCC 29213 [2] = assay: Checkerboard assay, aminoglycoside and tomatidine; format: cell-based, Staphylococcus aureus; settings: for Aminoglycoside MIC: checkerboard
Description: This checkerboard protocol (Eliopoulos and Moellering, 1996) was conducted by a microdilution method similar to that use for standard MICs determination. In 96 wells plates, antibiotics were loaded at a 4× concentration (where X is the maximal tested concentration) in well A1 and at a 2× concentration in the others wells of the column 1. Antibiotics were serially diluted 1:1 from the column 2 to column 10. […] Wells A12, B12, […] are positive untreated controls whereas wells […] are negative non-inoculated controls. […] The FIC index was calculated as follow (Eliopoulos and Moellering, 1996): FIC […]/MICB, where A and B are MICs of compounds A and B in combination and where MICA and MICB are the MICs of compound A alone and of compound B alone, respectively, and FICA and FICB are the FICs of compound A and of compound B, respectively.

S. aureus 8325-4 = assay: MIC, microdilution in CAMHB 24 h; format: cell-based, Staphylococcus aureus; settings: 8325-4
S. aureus Newbould = assay: MIC, microdilution in CAMHB 24 h; format: cell-based, Staphylococcus aureus; settings: Newbould
S. aureus SHY97-3906 = assay: MIC, microdilution in CAMHB 24 h; format: cell-based, Staphylococcus aureus
S. aureus ATCC BAA-41 = assay: MIC, microdilution in CAMHB 24 h; format: cell-based, Staphylococcus aureus
S. aureus N315 = assay: microbe, parasite or virus in culture; format: cell-based, Staphylococcus aureus
S. aureus Newman = assay: MIC, microdilution in CAMHB 24 h; format: cell-based, Staphylococcus aureus; settings: Newman
S. aureus MRSA COL = assay: MIC, microdilution in CAMHB 24 h; format: cell-based, Staphylococcus aureus; settings: MRSA COL
S. aureus Mu50 = assay: MIC, microdilution in CAMHB 24 h; format: cell-based, Staphylococcus aureus
S. aureus Sa228c = assay: MIC, microdilution in CAMHB 24 h; format: cell-based, Staphylococcus aureus; settings: Sa228c, 8 μg/ml of tomatidine
S. aureus CF1A-L = assay: MIC, microdilution in CAMHB 24 h; format: cell-based, Staphylococcus aureus; settings: CF1A-L
S. aureus CF2A-L = assay: MIC, microdilution in CAMHB 24 h; format: cell-based; settings: CF2A-L
S. aureus CF6B-L = assay: MIC, microdilution in CAMHB 24 h; format: cell-based, Staphylococcus aureus; settings: CF6B-L
S. aureus CF7A-L = assay: MIC, microdilution in CAMHB 24 h; format: cell-based, Staphylococcus aureus; settings: CF7A-L
S. aureus CF8E-L = assay: MIC, microdilution in CAMHB 24 h; format: cell-based, Staphylococcus aureus; settings: CF8E-L
S. aureus CF9A-L = assay: MIC, microdilution in CAMHB 24 h; format: cell-based, Staphylococcus aureus; settings: CF9A-L
S. aureus CF35A-L = assay: MIC, microdilution in CAMHB 24 h; format: cell-based, Staphylococcus aureus; settings: CF35A-L
S. aureus ATCC 29213 [3] = assay: Time-kill experiments, aminoglycoside alone or with tomatidine (FIGS. 8-10)
[4] = ATCC 29123, 8 μg/ml of tomatidine
[5] = SHY-3906, 8 μg/ml of tomatidine
[6] = ant(4′)-Ia, 8 μg/ml of tomatidine
[7] = ant(4′)-Ia, absence of tomatidine

gentamicin
Fold (−TO/+TO) (S. aureus ATCC 29213 [1]; [4]): 8-32 fold | MIC +TO (S. aureus ATCC 29213 [1]; [4]): 0.03 to 0.06 µg/mL | MIC −TO (S. aureus ATCC 29213 [1]; ATCC 29123): 0.5 to 1 µg/mL | MIC (S. aureus ATCC 29213 [1]; ATCC 29213, Human (SSTI)): 0.5 to 1 µg/mL | MIC −TO (S. aureus ATCC 29213 [1]; ATCC 29213): 0.5-1^ μg/ml | MIC +TO (S. aureus ATCC 29213 [1]; ATCC 29213, presence of tomatidine at 8 μg/ml): 0.03 to 0.06 µg/mL | Fold (−TO/+TO) (S. aureus ATCC 29213 [1]; ATCC 29213, tomatidine at 8 μg/ml): 8-32 fold | FIC index (S. aureus ATCC 29213 [2]; aminoglycoside with tomatidine, tomatidine MIC considered 32 μg/ml, values overestimated): ≦0.116 | Aminoglycoside MIC (S. aureus ATCC 29213 [2]; tomatidine 0 μg/ml): 0.5 to 1 µg/mL | Aminoglycoside MIC (S. aureus ATCC 29213 [2]; tomatidine 0.06 μg/ml): 0.25 µg/mL | Aminoglycoside MIC (S. aureus ATCC 29213 [2]; tomatidine 0.12 μg/ml): 0.06 to 0.25 µg/mL | Aminoglycoside MIC (S. aureus ATCC 29213 [2]; tomatidine 0.25 μg/ml): 0.06 µg/mL | Aminoglycoside MIC (S. aureus ATCC 29213 [2]; tomatidine 0.5 μg/ml): 0.06 µg/mL | Aminoglycoside MIC (S. aureus ATCC 29213 [2]; tomatidine 1 μg/ml): 0.03 to 0.06 µg/mL | Aminoglycoside MIC (S. aureus ATCC 29213 [2]; tomatidine 2 μg/ml): 0.06 to 0.12 µg/mL | Aminoglycoside MIC (S. aureus ATCC 29213 [2]; tomatidine 4 μg/ml): 0.03 to 0.12 µg/mL | Aminoglycoside MIC (S. aureus ATCC 29213 [2]; tomatidine 8 μg/ml): 0.03 to 0.06 µg/mL | Fold (−TO/+TO) (S. aureus 8325-4; 8 μg/ml of tomatidine): 4 fold | MIC +TO (S. aureus 8325-4; 8 μg/ml of tomatidine): 0.03 to 0.06 µg/mL | MIC (S. aureus 8325-4; Laboratory strain): 0.12 to 0.25 µg/mL | MIC −TO (S. aureus 8325-4; absence of tomatidine): 0.12 to 0.25 µg/mL | MIC +TO (S. aureus Newbould; 8 μg/ml of tomatidine): 0.06 µg/mL | MIC (S. aureus Newbould; Cow (mastitis)): 0.5 to 1 µg/mL | MIC −TO (S. aureus Newbould; absence of tomatidine): 0.5 to 1 µg/mL | MIC (S. aureus SHY97-3906; SHY97-3906, Cow (mastitis)): 0.25 µg/mL | Fold (−TO/+TO) (S. aureus SHY97-3906; [5]): 4-8 fold | MIC +TO (S. aureus SHY97-3906; [5]): 0.03 to 0.06 µg/mL | MIC −TO (S. aureus SHY97-3906; SHY-3906, absence of tomatidine): 0.25 µg/mL | MIC +TO (S. aureus ATCC BAA-41; ATCC BAA-41, ant(4′)-Ia, 8 μg/ml of tomatidine): 0.12 to 0.25 µg/mL | MIC −TO (S. aureus ATCC BAA-41; ATCC BAA-41, ant(4′)-Ia, absence of tomatidine): 0.5 µg/mL | Fold (−TO/+TO) (S. aureus ATCC BAA-41; ATCC BAA-41, 8 μg/ml of tomatidine): 2-4 fold | MIC (S. aureus ATCC BAA-41; ATCC BAA-41, Human (HA), MRSA): 0.5 µg/mL | MIC +TO (S. aureus N315; N315, ant(4′)-Ia, 8 μg/ml of tomatidine): 0.12 µg/mL | MIC −TO (S. aureus N315; N315, ant(4′)-Ia, absence of tomatidine): 1 µg/mL | Fold (−TO/+TO) (S. aureus N315; N315, 8 μg/ml of tomatidine): 8 fold | MIC (S. aureus N315; N315, Human (HA), MRSA): 1 µg/mL | Fold (−TO/+TO) (S. aureus Newman; 8 μg/ml of tomatidine): 8-16 fold | MIC +TO (S. aureus Newman; 8 μg/ml of tomatidine): 0.06 µg/mL | MIC (S. aureus Newman; Human (Osteo)): 0.5 to 1 µg/mL | MIC −TO (S. aureus Newman; absence of tomatidine): 0.5 to 1 µg/mL | Fold (−TO/+TO) (S. aureus MRSA COL; 8 μg/ml of tomatidine): 8-16 fold | MIC +TO (S. aureus MRSA COL; 8 μg/ml of tomatidine): 0.06 µg/mL | MIC (S. aureus MRSA COL; Human (SSTI)): 0.5 to 1 µg/mL | MIC −TO (S. aureus MRSA COL; absence of tomatidine): 0.5 to 1 µg/mL | MIC +TO (S. aureus Mu50; Mu50, aac(6′)-aph(2″), ant(4′)-Ia, 8 μg/ml of tomatidine): 16 µg/mL | MIC −TO (S. aureus Mu50; Mu50, aac(6′)-aph(2″), ant(4′)-Ia, absence of tomatidine): 128 µg/mL | Fold (−TO/+TO) (S. aureus Mu50; Mu50, 8 μg/ml of tomatidine): 8 fold | MIC (S. aureus Mu50; Mu50, Human (SSTI), MRSA, VISA): 128 (R) μg/ml | MIC +TO (S. aureus Sa228c; aac(6′)-aph(2″), ant(4′)-Ia): 8 to 16 µg/mL | Fold (−TO/+TO) (S. aureus Sa228c): 8 fold | Fold (−TO/+TO) (S. aureus CF1A-L; 8 μg/ml of tomatidine): 4-8 fold | MIC +TO (S. aureus CF1A-L; 8 μg/ml of tomatidine): 0.12 µg/mL | MIC (S. aureus CF1A-L; Human (CF lungs)): 0.5 to 1 µg/mL | MIC −TO (S. aureus CF1A-L; absence of tomatidine): 0.5 to 1 µg/mL | Fold (−TO/+TO) (S. aureus CF2A-L; 8 μg/ml of tomatidine): 4-8 fold | MIC +TO (S. aureus CF2A-L; 8 μg/ml of tomatidine): 0.12 to 0.25 µg/mL | MIC (S. aureus CF2A-L; Human (CF lungs)): 1 µg/mL | MIC −TO (S. aureus CF2A-L; absence of tomatidine): 1 µg/mL | MIC +TO (S. aureus CF6B-L; aac(6′)-aph(2″), 8 μg/ml of tomatidine): 16 to 32 µg/mL | MIC −TO (S. aureus CF6B-L; aac(6′)-aph(2″), absence of tomatidine): 128 to 256 µg/mL | Fold (−TO/+TO) (S. aureus CF6B-L; 8 μg/ml of tomatidine): 4-8 fold | MIC (S. aureus CF6B-L; Human (CF lungs)): 128-256 (R) μg/ml | MIC +TO (S. aureus CF7A-L; [6]): 0.12 to 0.25 µg/mL | MIC −TO (S. aureus CF7A-L; [7]): 0.5 to 1 µg/mL | Fold (−TO/+TO) (S. aureus CF7A-L; 8 μg/ml of tomatidine): 2-8 fold | MIC (S. aureus CF7A-L; Human (CF lungs), MRSA): 0.5 to 1 µg/mL | Fold (−TO/+TO) (S. aureus CF8E-L; 8 μg/ml of tomatidine): 2-4 fold | MIC +TO (S. aureus CF8E-L; 8 μg/ml of tomatidine): 0.25 to 0.5 µg/mL | MIC (S. aureus CF8E-L; Human (CF lungs)): 1 µg/mL | MIC −TO (S. aureus CF8E-L; absence of tomatidine): 1 µg/mL | MIC +TO (S. aureus CF9A-L; [6]): 0.06 to 0.12 µg/mL | MIC −TO (S. aureus CF9A-L; [7]): 0.5 to 1 µg/mL | Fold (−TO/+TO) (S. aureus CF9A-L; 8 μg/ml of tomatidine): 4-8 fold | MIC (S. aureus CF9A-L; Human (CF lungs), MRSA): 0.5 to 1 µg/mL | Fold (−TO/+TO) (S. aureus CF35A-L; 8 μg/ml of tomatidine): 8 fold | MIC +TO (S. aureus CF35A-L; 8 μg/ml of tomatidine): 0.06 to 0.12 µg/mL | MIC (S. aureus CF35A-L; Human (CF lungs), MRSA): 0.5 to 1 µg/mL | MIC −TO (S. aureus CF35A-L; absence of tomatidine): 0.5 to 1 µg/mL | time-kill activity alone (S. aureus ATCC 29213 [3]; alone at ≧1×MIC (1 μg/ml), regrowth observed within 24 h, FIG. 9): bactericidal | time-kill activity of combination (S. aureus ATCC 29213 [3]; gentamicin 0.06 μg/ml combined with tomatidine 8, FIG. 8): strong bactericidal activity
